Data as given in patent US20250205259A1, “CLASS OF 7-((FIVE-MEMBERED HETEROCYCLIC)METHYL)-8-CARBOXYLIC ACID-BENZO CYCLIC BORATE DERIVATIVES AND USES THEREOF” (priority 2022, published 2025).
Like-named read-outs stand apart in the source and are kept apart here.

Legend:
[1] = target: NDM-1 (Klebsiella pneumoniae, UniProt C7C422); experiment: Inhibitory activity on MBL, fluorescent substrate FC-5; format: biochemical
[2] = target: NDM-5 (Klebsiella pneumoniae, UniProt C7C422, M154L/V88L); experiment: as above; format: biochemical
Chain of NDM-5 (C7C422 29-270 V88L/M154L): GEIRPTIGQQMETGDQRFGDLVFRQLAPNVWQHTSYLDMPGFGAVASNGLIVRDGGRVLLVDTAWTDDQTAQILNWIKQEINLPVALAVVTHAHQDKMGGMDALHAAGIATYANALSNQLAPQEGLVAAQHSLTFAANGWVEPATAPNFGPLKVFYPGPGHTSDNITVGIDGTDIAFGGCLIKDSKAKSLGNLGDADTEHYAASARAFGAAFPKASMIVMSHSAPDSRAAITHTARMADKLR

[3] = target: IMP-1 (Serratia marcescens, UniProt P52699); experiment: as above; format: biochemical
Chain of IMP-1 (P52699 19-246 limits assumed): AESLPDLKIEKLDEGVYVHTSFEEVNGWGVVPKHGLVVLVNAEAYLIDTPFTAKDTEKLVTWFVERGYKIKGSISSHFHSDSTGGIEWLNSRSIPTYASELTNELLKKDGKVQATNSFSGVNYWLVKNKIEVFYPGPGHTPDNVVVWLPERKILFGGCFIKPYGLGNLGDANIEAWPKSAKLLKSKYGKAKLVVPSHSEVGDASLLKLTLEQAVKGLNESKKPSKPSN

[4] = target: VIM-1 (Pseudomonas aeruginosa, UniProt A0A0F7KYQ8); experiment: as above; format: biochemical
[5] = target: VIM-2 (Escherichia coli, UniProt Q5U7L7); experiment: as above; format: biochemical; details: read-out: Inhibitory activity on MBL VIM-2 (IC50 class)
[6] = target: KPC-2 (Klebsiella pneumoniae, UniProt Q9F663); experiment: Inhibitory activity on SBL, fluorescent substrate FC-5; format: biochemical; details: for IC50: read-out: Inhibitory activity on SBL KPC-2 (IC50 class)
Chain of KPC-2 (Q9F663 25-293 limits assumed): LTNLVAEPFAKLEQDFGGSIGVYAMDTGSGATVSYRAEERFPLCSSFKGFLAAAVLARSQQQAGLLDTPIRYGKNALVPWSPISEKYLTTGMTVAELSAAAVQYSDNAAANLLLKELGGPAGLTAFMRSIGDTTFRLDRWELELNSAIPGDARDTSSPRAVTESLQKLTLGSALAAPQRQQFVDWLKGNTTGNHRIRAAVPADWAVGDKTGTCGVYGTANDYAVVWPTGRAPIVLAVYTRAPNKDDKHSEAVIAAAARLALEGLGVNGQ

[7] = target: TEM-1 (Escherichia coli, UniProt P62593); experiment: as above; format: biochemical; details: for IC50: read-out: Inhibitory activity on SBL TEM-1 (IC50 class)
Chain of TEM-1 (P62593 24-286 limits assumed): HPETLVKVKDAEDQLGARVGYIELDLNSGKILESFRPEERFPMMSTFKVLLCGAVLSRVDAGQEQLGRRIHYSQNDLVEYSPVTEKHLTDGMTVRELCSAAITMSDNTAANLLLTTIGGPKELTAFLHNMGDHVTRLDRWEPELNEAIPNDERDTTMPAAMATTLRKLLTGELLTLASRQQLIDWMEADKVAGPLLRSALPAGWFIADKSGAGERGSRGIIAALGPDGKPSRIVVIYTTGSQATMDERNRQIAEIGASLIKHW

[8] = target: CTX-M-14 (Escherichia coli, UniProt Q9L5C7); experiment: as above; format: biochemical; details: for IC50: read-out: Inhibitory activity on SBL CTX-M-14 (IC50 class)
Chain of CTX-M-14 (Q9L5C7 entry or part of it): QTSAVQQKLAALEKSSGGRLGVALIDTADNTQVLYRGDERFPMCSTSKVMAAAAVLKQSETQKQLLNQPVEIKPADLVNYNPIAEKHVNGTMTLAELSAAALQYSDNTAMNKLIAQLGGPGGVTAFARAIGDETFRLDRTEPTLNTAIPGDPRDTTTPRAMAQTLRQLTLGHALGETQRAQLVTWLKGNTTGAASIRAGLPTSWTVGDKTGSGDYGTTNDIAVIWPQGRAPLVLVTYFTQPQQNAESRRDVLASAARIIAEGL

[9] = target: OXA-48 (Klebsiella pneumoniae, UniProt Q6XEC0); experiment: as above; format: biochemical; details: for IC50: read-out: Inhibitory activity on SBL OXA-48 (IC50 class)
Chain of OXA-48 (Q6XEC0 23-265 limits assumed): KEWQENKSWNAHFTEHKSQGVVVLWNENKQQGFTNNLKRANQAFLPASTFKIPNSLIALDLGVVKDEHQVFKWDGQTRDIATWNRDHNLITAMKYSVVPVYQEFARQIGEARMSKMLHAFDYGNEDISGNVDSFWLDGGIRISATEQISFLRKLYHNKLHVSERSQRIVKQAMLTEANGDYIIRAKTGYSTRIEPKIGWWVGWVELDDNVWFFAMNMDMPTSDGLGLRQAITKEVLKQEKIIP

[10] = target: AmpC (UniProt P24735); experiment: as above; details: read-out: Inhibitory activity on SBL AmpC (IC50 class)
[11] = target: T1, SHV-12 (UniProt P0AD64, L31Q/G234S/E235K, species not given); experiment: as above; format: biochemical; details: for IC50: read-out: Inhibitory activity on SBL SHV-12 (IC50 class); for inhibitory activity on SHV-12 compared to control drugs: comparison in words
T1 sequence (P0AD64 1-286 L31Q/G234S/E235K): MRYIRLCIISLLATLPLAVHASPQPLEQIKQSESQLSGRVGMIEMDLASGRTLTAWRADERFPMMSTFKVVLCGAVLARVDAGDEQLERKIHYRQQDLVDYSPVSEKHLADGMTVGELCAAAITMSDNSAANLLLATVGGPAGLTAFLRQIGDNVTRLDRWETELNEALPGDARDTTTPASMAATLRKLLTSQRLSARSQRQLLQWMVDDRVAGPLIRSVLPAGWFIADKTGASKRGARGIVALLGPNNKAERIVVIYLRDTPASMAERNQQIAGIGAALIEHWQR

[12] = read-out: Inhibitory activity on MBL NDM-1 (IC50 class)
[13] = read-out: Inhibitory activity on MBL NDM-5 (IC50 class)
[14] = read-out: Inhibitory activity on MBL IMP-1 (IC50 class)
[15] = VIM-1 and/or VIM-2, read-out: inhibitory activity at a nanomolar-level on VIM-1 and/or VIM-2
[16] = read-out: Inhibitory activity on MBL VIM-1 (IC50 class)
[17] = read-out: inhibitory activity at a nanomolar-level on NDM-1
[18] = read-out: inhibitory activity at a nanomolar-level on NDM-5

Chain of NDM-1 (C7C422 29-270 limits assumed): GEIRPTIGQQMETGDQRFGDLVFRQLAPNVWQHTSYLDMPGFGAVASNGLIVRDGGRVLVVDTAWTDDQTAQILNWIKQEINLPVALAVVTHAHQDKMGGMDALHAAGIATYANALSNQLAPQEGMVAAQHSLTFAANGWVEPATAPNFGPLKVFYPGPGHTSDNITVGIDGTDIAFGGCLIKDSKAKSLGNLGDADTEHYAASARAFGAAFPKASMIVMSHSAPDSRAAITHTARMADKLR

Compound | IC50 [1, 12] [nM] | IC50 [2, 13] [nM] | IC50 [3, 14] [nM] | IC50 [4, 15] [nM] | IC50 [4, 16] [nM] | IC50 [5] [nM] | IC50 [6] [nM] | IC50 [7] [nM] | IC50 [8] [nM] | IC50 [9] [nM] | IC50 [10] [nM] | IC50 [1, 17] [nM] | IC50 [2, 18] [nM] | IC50 [11] [nM] | IC50 ([3]; IMP-1 and/or IMP-4, read-out: inhibitory activity at a nanomolar-level on IMP-1 and/or IMP-4) [nM] | inhibitory activity on KPC-2 compared to avibactam ([6]; comparison in words) | inhibitory activity on TEM-1 compared to avibactam ([7]; comparison in words) | inhibitory activity on SHV-12 compared to control drugs [11] | inhibitory activity on CTX-M-14 compared to avibactam ([8]; comparison in words) | inhibitory activity on OXA-48 compared to avibactam ([9]; comparison in words)
NCCCc1cn(Cc2ccc3c(c2C(=O)O)OB(O)CC3)nn1 [Compound 9] | 1000 to 100000 | 10 to 1000 | 1000 to 100000 | < 1000 | 1000 to 100000 | 10 to 1000 | < 10 | 10 to 1000 | 10 to 1000 | < 10 | > 100000 | – | – | – | – | – | – | – | – | –
N=C(N)NCCc1cn(Cc2ccc3c(c2C(=O)O)OB(O)CC3)nn1 [Compound 10] | 10 to 1000 | 10 to 1000 | 1000 to 100000 | < 1000 | 1000 to 100000 | 10 to 1000 | < 10 | 10 to 1000 | 10 to 1000 | < 10 | > 100000 | < 1000 | < 1000 | – | – | – | – | – | – | –
NC1CCC(c2cn(Cc3ccc4c(c3C(=O)O)OB(O)CC4)nn2)CC1 (stereo not drawn) [Compound 11] | 10 to 1000 | 10 to 1000 | 1000 to 100000 | < 1000 | 1000 to 100000 | 10 to 1000 | < 10 | 10 to 1000 | 10 to 1000 | < 10 | > 100000 | < 1000 | < 1000 | – | – | – | – | – | – | –
O=C(O)c1c(CN2C[C@H](O)CC2=O)ccc2c1OB(O)CC2 [Compound 44] | 10 to 1000 | 10 to 1000 | 1000 to 100000 | < 1000 | 10 to 1000 | 10 to 1000 | 10 to 1000 | 10 to 1000 | 10 to 1000 | 10 to 1000 | – | < 1000 | < 1000 | 10 to 1000 | – | – | – | – | – | –
N=C(N)NCCCc1cn(Cc2ccc3c(c2C(=O)O)OB(O)CC3)nn1 [Compound 48] | 1000 to 100000 | 10 to 1000 | 1000 to 100000 | – | 1000 to 100000 | 10 to 1000 | < 10 | 10 to 1000 | 10 to 1000 | 10 to 1000 | – | – | – | 10 to 1000 | – | – | – | – | – | –
N=C(N)NCCc1cnn(Cc2ccc3c(c2C(=O)O)OB(O)CC3)c1 [Compound 50] | 1000 to 100000 | 10 to 1000 | 1000 to 100000 | – | 1000 to 100000 | 1000 to 100000 | < 10 | 10 to 1000 | 10 to 1000 | 10 to 1000 | – | – | – | 10 to 1000 | – | – | – | – | – | –
NS(=O)(=O)NCCc1cn(Cc2ccc3c(c2C(=O)O)OB(O)CC3)nn1 [Compound 51] | 10 to 1000 | 10 to 1000 | 1000 to 100000 | – | 1000 to 100000 | 10 to 1000 | < 10 | 10 to 1000 | 10 to 1000 | < 10 | – | < 1000 | < 1000 | 10 to 1000 | – | – | – | – | – | –
O=C(O)c1c(Cn2cc3c(n2)CNC3)ccc2c1OB(O)[C@@H]1C[C@H]21 [Compound 53] | 10 to 1000 | 10 to 1000 | 1000 to 100000 | – | 1000 to 100000 | 10 to 1000 | < 10 | 10 to 1000 | 10 to 1000 | < 10 | – | < 1000 | < 1000 | 10 to 1000 | – | – | – | – | – | –
O=C(O)c1c(Cn2cc3c(n2)CNC3)ccc2c1OB(O)[C@H]1C[C@@H]21 [Compound 54] | 10 to 1000 | 10 to 1000 | 1000 to 100000 | – | 1000 to 100000 | 10 to 1000 | 10 to 1000 | 1000 to 100000 | 10 to 1000 | 10 to 1000 | – | < 1000 | < 1000 | 10 to 1000 | – | – | – | – | – | –
NS(=O)(=O)N1Cc2cn(Cc3ccc4c(c3C(=O)O)OB(O)CC4)nc2C1 [Compound 57] | 10 to 1000 | 10 to 1000 | 1000 to 100000 | < 1000 | 10 to 1000 | 10 to 1000 | < 10 | < 10 | < 10 | < 10 | – | < 1000 | < 1000 | 10 to 1000 | – | – | – | – | – | –
NCCc1ccc(-c2cn(Cc3ccc4c(c3C(=O)O)OB(O)CC4)nn2)cc1 [Compound 65] | – | – | – | – | – | – | < 10 | – | – | – | 1000 to 100000 | – | – | – | – | – | – | – | – | –
NCCN1Cc2cn(Cc3ccc4c(c3C(=O)O)OB(O)CC4)nc2C1 [Compound 70] | 10 to 1000 | 10 to 1000 | 10 to 1000 | < 1000 | 10 to 1000 | 10 to 1000 | < 10 | < 10 | 10 to 1000 | 10 to 1000 | – | < 1000 | < 1000 | < 10 | < 1000 | better or comparable | better or comparable | comparable to avibactam and tazobactam and superior to taniborbactam | better or comparable | better or comparable
N#Cc1ccn(Cc2ccc3c(c2C(=O)O)OB(O)CC3)c1 [Compound 71] | 10 to 1000 | 10 to 1000 | 10 to 1000 | < 1000 | 10 to 1000 | 10 to 1000 | < 10 | < 10 | 10 to 1000 | 10 to 1000 | – | < 1000 | < 1000 | < 10 | – | – | – | comparable to avibactam and tazobactam and superior to taniborbactam | – | –
NC1CN(C(=O)c2cnn(Cc3ccc4c(c3C(=O)O)OB(O)CC4)c2)C1 [Compound 72] | 10 to 1000 | 10 to 1000 | 10 to 1000 | < 1000 | 10 to 1000 | 10 to 1000 | < 10 | < 10 | 10 to 1000 | 10 to 1000 | – | < 1000 | < 1000 | < 10 | – | – | – | comparable to avibactam and tazobactam and superior to taniborbactam | – | –
